# Experimental data from ChEMBL document CHEMBL5126592, “Design, synthesis and activity against drug-resistant bacteria evaluation of C-20, C-23 modified 5-O-mycaminosyltylonolide derivatives” (Eur J Med Chem, 2022).
# Activity calls are given as the source filed them. The calls are words filed in the database; no cut-off is given here.
# How the values were obtained:
# [1] = system: Escherichia coli; assay: Induction of drug resistance in Escherichia coli ATCC 25922 assessed as increase in MIC measured after 30 passages by broth microdilution method; assay type: functional
# [2] = system: Staphylococcus aureus; assay: Antibacterial activity against Staphylococcus aureus ATCC 29213 at pH 8.6 incubated for 16 to 20 hrs in absence of foetal bovine serum by broth microdilution method; assay type: functional; conditions: time 16-20 hrs
# [3] = system: Staphylococcus aureus; assay: Antibacterial activity against Staphylococcus aureus ATCC 29213 at pH 8.6 incubated for 16 to 20 hrs in presence of 50% foetal bovine serum by broth microdilution method; assay type: functional; conditions: time 16-20 hrs
# [4] = system: Escherichia coli; assay: Antibacterial activity against Escherichia coli ATCC 25922 incubated for 16 to 20 hrs using 10^3 CFU/ml bacterial inoculum by broth microdilution method; assay type: functional; conditions: time 16-20 hrs
# [5] = system: Escherichia coli; assay: Antibacterial activity against Escherichia coli ATCC 25922 incubated for 16 to 20 hrs using 10^6 CFU/ml bacterial inoculum by broth microdilution method; assay type: functional; conditions: time 16-20 hrs
# [6] = system: Streptococcus dysgalactiae; assay: Antibacterial activity against Streptococcus dysgalactiae incubated for 16 to 20 hrs by broth microdilution method; assay type: functional; conditions: time 16-20 hrs
# [7] = system: Escherichia coli; assay: Antibacterial activity against Escherichia coli ATCC 25922 incubated for 16 to 20 hrs using 10^7 CFU/ml bacterial inoculum by broth microdilution method; assay type: functional; conditions: time 16-20 hrs
# [8] = system: Escherichia coli; assay: Antibacterial activity against Escherichia coli ATCC 25922 incubated for 16 to 20 hrs using 10^4 CFU/ml bacterial inoculum by broth microdilution method; assay type: functional; conditions: time 16-20 hrs
# [9] = system: Escherichia coli; assay: Antibacterial activity against Escherichia coli incubated for 16 to 20 hrs by broth microdilution method; assay type: functional; conditions: time 16-20 hrs
# [10] = system: Staphylococcus aureus; assay: Antibacterial activity against Staphylococcus aureus ATCC 29213 at pH 8.6 incubated for 16 to 20 hrs in presence of 5% foetal bovine serum by broth microdilution method; assay type: functional; conditions: time 16-20 hrs
# [11] = system: Staphylococcus aureus; assay: Antibacterial activity against Staphylococcus aureus ATCC 29213 at pH 8.6 incubated for 16 to 20 hrs in presence of 10% foetal bovine serum by broth microdilution method; assay type: functional; conditions: time 16-20 hrs
# [12] = system: Staphylococcus aureus; assay: Antibacterial activity against Staphylococcus aureus ATCC 29213 incubated for 16 to 20 hrs using 10^3 CFU/ml bacterial inoculum by broth microdilution method; assay type: functional; conditions: time 16-20 hrs
# [13] = system: Cronobacter sakazakii; assay: Antibacterial activity against Cronobacter sakazakii ATCC 29544 incubated for 16 to 20 hrs by broth microdilution method; assay type: functional; conditions: time 16-20 hrs
# [14] = system: Pseudomonas aeruginosa; assay: Antibacterial activity against Pseudomonas aeruginosa LTP-3 incubated for 16 to 20 hrs by broth microdilution method; assay type: functional; conditions: time 16-20 hrs
# [15] = system: Escherichia coli; assay: Antibacterial activity against Escherichia coli ATCC 25922 incubated for 16 to 20 hrs in presence of 10% foetal bovine serum by broth microdilution method; assay type: functional; conditions: time 16-20 hrs
# [16] = system: Escherichia coli; assay: Antibacterial activity against Escherichia coli ATCC 25922 incubated for 16 to 20 hrs using 10^5 CFU/ml bacterial inoculum by broth microdilution method; assay type: functional; conditions: time 16-20 hrs
# [17] = system: Staphylococcus chromogenes; assay: Antibacterial activity against Staphylococcus chromogenes incubated for 16 to 20 hrs by broth microdilution method; assay type: functional; conditions: time 16-20 hrs
# [18] = system: Escherichia coli; assay: Antibacterial activity against Escherichia coli ATCC 25922 incubated for 16 to 20 hrs in presence of 5% foetal bovine serum by broth microdilution method; assay type: functional; conditions: time 16-20 hrs
# [19] = system: Escherichia coli; assay: Antibacterial activity against Escherichia coli ATCC 25922 incubated for 16 to 20 hrs by broth microdilution method; assay type: functional; conditions: time 16-20 hrs
# [20] = system: Escherichia coli; assay: Antibacterial activity against Escherichia coli ATCC 25922 incubated for 16 to 20 hrs in presence of 50% foetal bovine serum by broth microdilution method; assay type: functional; conditions: time 16-20 hrs
# [21] = system: Staphylococcus aureus; assay: Antibacterial activity against Staphylococcus aureus ATCC 29213 incubated for 16 to 20 hrs using 10^6 CFU/ml bacterial inoculum by broth microdilution method; assay type: functional; conditions: time 16-20 hrs
# [22] = system: Staphylococcus aureus; assay: Antibacterial activity against Staphylococcus aureus ATCC 25923 incubated for 16 to 20 hrs by broth microdilution method; assay type: functional; conditions: time 16-20 hrs
# [23] = system: Staphylococcus aureus; assay: Antibacterial activity against Staphylococcus aureus ATCC 29213 incubated for 16 to 20 hrs using 10^7 CFU/ml bacterial inoculum by broth microdilution method; assay type: functional; conditions: time 16-20 hrs
# [24] = system: Staphylococcus aureus; assay: Antibacterial activity against Staphylococcus aureus ATCC 29213 at pH 8.6 incubated for 16 to 20 hrs in presence of 25% foetal bovine serum by broth microdilution method; assay type: functional; conditions: time 16-20 hrs
# [25] = system: Escherichia coli; assay: Antibacterial activity against Escherichia coli ATCC 25922 incubated for 16 to 20 hrs in absence of foetal bovine serum by broth microdilution method; assay type: functional; conditions: time 16-20 hrs
# [26] = system: Enterococcus faecium; assay: Antibacterial activity against Enterococcus faecium incubated for 16 to 20 hrs by broth microdilution method; assay type: functional; conditions: time 16-20 hrs
# [27] = system: Escherichia coli; assay: Antibacterial activity against Escherichia coli ATCC 25922 incubated for 16 to 20 hrs in presence of 25% foetal bovine serum by broth microdilution method; assay type: functional; conditions: time 16-20 hrs
# [28] = system: Staphylococcus aureus; assay: Antibacterial activity against Staphylococcus aureus ATCC 29213 incubated for 16 to 20 hrs using 10^5 CFU/ml bacterial inoculum by broth microdilution method; assay type: functional; conditions: time 16-20 hrs
# [29] = system: Staphylococcus aureus; assay: Antibacterial activity against Staphylococcus aureus incubated for 16 to 20 hrs by broth microdilution method; assay type: functional; conditions: time 16-20 hrs
# [30] = system: Staphylococcus aureus; assay: Antibacterial activity against Staphylococcus aureus ATCC 29213 incubated for 16 to 20 hrs using 10^4 CFU/ml bacterial inoculum by broth microdilution method; assay type: functional; conditions: time 16-20 hrs
# [31] = system: Klebsiella pneumoniae; assay: Antibacterial activity against Klebsiella pneumoniae ATCC 13883 incubated for 16 to 20 hrs by broth microdilution method; assay type: functional; conditions: time 16-20 hrs
# [32] = system: Staphylococcus aureus; assay: Antibacterial activity against Staphylococcus aureus ATCC 25923 infected in kunming mouse assessed as reduction in viable pathogens at 32.5 mg/kg, iv measured after 1 hr; assay type: functional, organism-based
# [33] = system: Staphylococcus aureus; assay: Bactericidal activity against Staphylococcus aureus ATCC 29213 incubated for 20 to 24 hrs by CLSI based analysis; assay type: functional; conditions: time 20-24 hrs
# [34] = system: Staphylococcus aureus; assay: Antibacterial activity against Staphylococcus aureus ATCC 29213 incubated for 16 to 20 hrs by broth microdilution method; assay type: functional; conditions: time 16-20 hrs
# [35] = system: Escherichia coli; assay: Inhibition of protein synthesis in Escherichia coli ATCC 25922 assessed as reduction in protein content at […] measured upto 12 hrs by microporous enzyme labeling method relative to control; assay type: functional
# [36] = system: Staphylococcus aureus; assay: Ratio of MBC to MIC for Staphylococcus aureus ATCC 29213; assay type: functional
# [37] = system: Escherichia coli; assay: Ratio of MBC to MIC for Escherichia coli ATCC 25922; assay type: functional
# [38] = system: Escherichia coli; assay: Bactericidal activity against Escherichia coli ATCC 25922 incubated for 20 to 24 hrs by CLSI based analysis; assay type: functional; conditions: time 20-24 hrs
Structure (SMILES),MIC [2],MIC [3],MIC [4],MIC [5],MIC [6],MIC [7],MIC [8],MIC [9],MIC [10],MIC [11],MIC [12],MIC [13],MIC [14],MIC [15],MIC [16],MIC [17],MIC [18],MIC [19],MIC [20],MIC [21],also measured
CS(=O)(=O)c1ccc([C@@H](O)[C@@H](CF)NC(=O)C(Cl)Cl)cc1,,,,,,,,,,,,,,,,,,,,,Activity [1]: Active
CC[C@H]1OC(=O)C[C@@H](O)[C@H](C)[C@@H](O[C@@H]2O[C@H](C)[C@@H](O[C@H]3C[C@@](C)(O)[C@@H](O)[C@H](C)O3)[C@H](N(C)C)[C@H]2O)[C@@H](CC=O)C[C@@H](C)C(=O)/C=C/C(C)=C/[C@@H]1CO[C@@H]1O[C@H](C)[C@@H](O)[C@@H](OC)[C@H]1OC [TYLOSIN],2 µg/mL,> 32 µg/mL,> 32 µg/mL,> 32 µg/mL,1 µg/mL,> 32 µg/mL,> 32 µg/mL,> 32 µg/mL,> 32 µg/mL,> 32 µg/mL,0.5 µg/mL,> 32 µg/mL,32 µg/mL,> 32 µg/mL,> 32 µg/mL,0.5 µg/mL,> 32 µg/mL,> 32 µg/mL,> 32 µg/mL,1 µg/mL,MIC [22]: 0.5 µg/mL; MIC [23]: 1 µg/mL; MIC [24]: > 32 µg/mL; MIC [25]: > 32 µg/mL; MIC [26]: 1 µg/mL; MIC [27]: > 32 µg/mL; MIC [28]: 0.5 µg/mL; MIC [29]: 0.25 µg/mL; MIC [30]: 0.5 µg/mL; MIC [31]: > 32 µg/mL
CC[C@H]1OC(=O)C[C@@H](O)[C@H](C)[C@@H](O[C@@H]2O[C@H](C)[C@@H](O)[C@H](N(C)C)[C@H]2O)[C@@H](CCN2CCCCC2)C[C@@H](C)C(=O)/C=C/C(C)=C/[C@@H]1CN1CCCCC1 [TILDIPIROSIN],4 µg/mL,16 µg/mL,0.5 µg/mL,2 µg/mL,32 µg/mL,2 µg/mL,1 µg/mL,16 µg/mL,4 µg/mL,8 µg/mL,0.5 µg/mL,16 µg/mL,4 µg/mL,2 µg/mL,1 µg/mL,16 µg/mL,2 µg/mL,1 µg/mL,4 µg/mL,4 µg/mL,Activity [32]: Active; MBC [33]: > 32 µg/mL; MIC [34]: 16 µg/mL; inhibition [35]: 26.5%; MIC [22]: 16 µg/mL; MIC [23]: 4 µg/mL; MIC [24]: 16 µg/mL; MIC [25]: 2 µg/mL; Ratio [36]: >2; MIC [26]: 32 µg/mL; Ratio [37]: 4; MBC [38]: 4 µg/mL; MIC [27]: 4 µg/mL; MIC [28]: 2 µg/mL; MIC [29]: 32 µg/mL; MIC [30]: 1 µg/mL; MIC [31]: 8 µg/mL
